Measurements reported in patent US20190352276A1, “INHIBITORS OF BRUTON'S TYROSINE KINASE” (Joint Stock Company "Biocad", priority 2016, published 2019).

Key:
EGFR = biological target: T1, EGFR (Homo sapiens, UniProt P00533); experiment: In vitro kinase panel: EGFR; assay type: biochemical; settings: Table 9 kinase panel
T1 construct: purchased SignalChem E10-11G
Method: (§1) The measurements were carried out in a 25 μL reaction volume using a 96-well plate (Corning, #3642). The kinase enzyme and inhibitor were pre-incubated for 10 minutes in the reaction buffer containing 25 mM of MOPS (pH 7.2), 12.5 mM of 0-glycerophosphate, 27 mM of MgCl2, 2 mM of MnCl2, 5 mM of EGTA, 2 mM of EDTA, 0.3 mM of DTT, and 1.2 mg/mL of bovine serum albumin. Staurosporine (Abcam Biochemicals, ab146588) was used as a reference inhibitor and 0.1% DMSO in the reaction buffer—as a negative control. The solution of 0.5 mg/mL peptide substrate and 50 &M ATP in the same buffer were added; the solution was incubated for 180 minutes at 37° C. To detect the amount of ATP taken up during the kinase reaction, the equivalent amount of ADP (from the ADP Glo Detection Kit (Promega, #V9101)) was used according to the protocol. The reaction mixture was equilibrated to room temperature. 25 µL of ADP-Glo Reagent were added into each well; the plate was incubated for 40 minutes. 50 μL of Kinase Detection Reagent were added; the plate was incubated for 30 minutes. The luminescence was measured with multimode plate reader (Tecan Infinite M200Pro, Switzerland). IC50 values were calculated using Magellan 7.2 software (Tecan, Switzerland) approximating experimental points by four-parameter logistic model with the optimization by Levenberg-Marquardt.
(§2) For active compounds selected by screening using the target enzyme BTK, the values of IC50 were determined on a kinase panel: EGFR (SignalChem, #E10-11G), ITK (SignalChem, #I13-10G) and TEC (SignalChem, #T03-10G).

ITK = biological target: T2, ITK (Homo sapiens, UniProt Q08881); experiment: In vitro kinase panel: ITK; assay type: biochemical; settings: Table 9 kinase panel
T2 construct: purchased SignalChem I13-10G
T2 sequence (Q08881 1-620): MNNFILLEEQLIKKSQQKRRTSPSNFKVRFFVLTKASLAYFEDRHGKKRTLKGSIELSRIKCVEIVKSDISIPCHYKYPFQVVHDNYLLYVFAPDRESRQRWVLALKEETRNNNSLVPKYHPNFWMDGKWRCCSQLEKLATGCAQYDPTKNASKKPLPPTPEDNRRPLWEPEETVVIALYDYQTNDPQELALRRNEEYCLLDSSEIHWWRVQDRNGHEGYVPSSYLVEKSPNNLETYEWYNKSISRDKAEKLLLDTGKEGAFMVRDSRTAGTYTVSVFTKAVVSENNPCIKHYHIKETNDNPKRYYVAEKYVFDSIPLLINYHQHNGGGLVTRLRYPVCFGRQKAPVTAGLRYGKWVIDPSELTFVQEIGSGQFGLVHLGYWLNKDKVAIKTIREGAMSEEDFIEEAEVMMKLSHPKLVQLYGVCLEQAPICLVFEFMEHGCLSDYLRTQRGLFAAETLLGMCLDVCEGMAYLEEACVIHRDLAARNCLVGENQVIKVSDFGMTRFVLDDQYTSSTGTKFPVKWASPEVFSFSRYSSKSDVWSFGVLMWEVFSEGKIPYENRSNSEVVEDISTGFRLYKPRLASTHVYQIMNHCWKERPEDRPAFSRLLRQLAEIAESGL
Method: as §1, §2

[1] = system: Mino (mantle cell lymphoma); experiment: Antiproliferative activity, Mino cells (Alamar Blue); assay type: cell-based; settings: Homo sapiens
How it was run: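 IC50 values come from a four-parameter logistic fit of Alamar Blue fluorescence (540 nm excitation, 590 nm emission) read 14-16 h after reagent addition. Before that, the lymphoma lines, about 3*10^4 cells per well in 10% FBS RPMI-1640, were incubated with compound for 72 h at 37 °C, keeping final DMSO below 1%.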

TEC = biological target: T3, TEC (Homo sapiens, UniProt P42680); experiment: In vitro kinase panel: TEC; assay type: biochemical; settings: Table 9 kinase panel
T3 construct: purchased SignalChem T03-10G
T3 sequence (P42680 1-631): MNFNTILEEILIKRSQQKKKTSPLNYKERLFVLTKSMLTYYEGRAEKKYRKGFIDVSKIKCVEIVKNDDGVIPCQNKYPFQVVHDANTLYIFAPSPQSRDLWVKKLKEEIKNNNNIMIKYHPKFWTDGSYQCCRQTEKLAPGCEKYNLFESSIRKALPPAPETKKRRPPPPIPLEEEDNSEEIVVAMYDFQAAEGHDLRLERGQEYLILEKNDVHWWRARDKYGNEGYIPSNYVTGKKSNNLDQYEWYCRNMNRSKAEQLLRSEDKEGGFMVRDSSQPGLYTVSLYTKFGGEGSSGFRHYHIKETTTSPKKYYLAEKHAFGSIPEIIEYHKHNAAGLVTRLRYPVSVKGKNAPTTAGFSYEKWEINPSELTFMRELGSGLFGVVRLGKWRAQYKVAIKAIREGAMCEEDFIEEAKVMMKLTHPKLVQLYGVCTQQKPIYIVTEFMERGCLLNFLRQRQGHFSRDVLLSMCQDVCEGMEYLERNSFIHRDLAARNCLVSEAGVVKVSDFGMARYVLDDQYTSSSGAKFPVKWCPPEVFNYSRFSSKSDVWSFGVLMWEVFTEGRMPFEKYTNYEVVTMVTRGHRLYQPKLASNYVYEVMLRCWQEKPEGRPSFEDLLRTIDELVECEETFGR
Method: as §1, §2

[2] = Table 10, 72 h, average of several tests

T1 sequence (P00533 672-1210 limits assumed): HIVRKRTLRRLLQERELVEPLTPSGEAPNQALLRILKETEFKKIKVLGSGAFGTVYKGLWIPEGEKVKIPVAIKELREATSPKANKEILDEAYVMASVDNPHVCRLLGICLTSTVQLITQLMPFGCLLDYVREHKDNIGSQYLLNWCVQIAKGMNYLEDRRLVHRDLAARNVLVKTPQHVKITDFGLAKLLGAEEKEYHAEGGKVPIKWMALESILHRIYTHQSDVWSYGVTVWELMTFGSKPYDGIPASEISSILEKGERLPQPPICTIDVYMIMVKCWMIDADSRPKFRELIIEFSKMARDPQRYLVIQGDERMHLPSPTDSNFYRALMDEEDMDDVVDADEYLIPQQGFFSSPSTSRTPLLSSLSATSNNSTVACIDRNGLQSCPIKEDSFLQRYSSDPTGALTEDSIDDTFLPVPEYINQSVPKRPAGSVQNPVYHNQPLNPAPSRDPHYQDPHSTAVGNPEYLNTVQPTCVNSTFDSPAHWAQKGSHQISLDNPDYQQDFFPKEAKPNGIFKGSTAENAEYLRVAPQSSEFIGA

Compound | IC50 (EGFR) [nM] | IC50 (ITK) [nM] | IC50 [1, 2] [nM] | IC50 (TEC) [nM] | IC50 ([1]; Table 11, 72 h) [nM]
C=CC(=O)N1CCC[C@@H](n2nc(-c3ccc(C(=O)Nc4ccccn4)cc3)c3cncc(Cl)c32)C1 [BCD-BTK-201] | 172 | > 300 | 11900 | 55.2 | –
C=CC(=O)N1CCC[C@@H](n2nc(-c3ccc(C(=O)Nc4ncccc4F)cc3)c3c(N)ncc(C#N)c32)C1 [BCD-BTK-258, 4-{4-amino-7-cyano-1-[(3R)-1-(prop-2-enoyl)piperidin-3-yl]-1H-pyrazolo[4,3-c]pyridin-3-yl}-N-(3-fluoropyridin-2-yl)benzamide] | 18.6 | 33.3 | 17300 | 2.92 | –
C=CC(=O)N1CCC[C@@H](n2nc(-c3ccc(Oc4ccncc4)cc3)c3cncc(Cl)c32)C1 [BCD-BTK-125, (R)-1-(1-acryloylpiperidin-3-yl)-7-chloro-3-(4-(pyridin-4-yloxy)phenyl)-1H-pyrazolo[4,3-c]pyridine] | > 1000 | > 1000 | – | – | 7300
C=CC(=O)N1CCC[C@@H](n2nc(-c3ccc(C(=O)Nc4cc(C(F)(F)CCC)ccn4)cc3)c3cncc(Cl)c32)C1 [BCD-BTK-252, (R)-4-(1-(1-acryloylpiperidin-3-yl)-7-chloro-1H-pyrazolo[4,3-c]pyridin-3-yl)-N-(4-(1,1-difluorobutyl)pyridin-2-yl)benzamide] | > 500 | > 1000 | 4460 | > 100 | –
C=CC(=O)N1CCC[C@@H](n2nc(-c3ccc(Oc4cccnc4C#N)cc3)c3cncc(F)c32)C1 [BCD-BTK-230, (R)-3-(4-(1-(1-acryloylpiperidin-3-yl)-7-fluoro-1H-pyrazolo[4,3-c]pyridin-3-yl)phenoxy)picolinonitrile] | > 500 | > 1000 | 9810 | > 200 | –
C=CC(=O)N1CCC[C@@H](n2nc(-c3ccc(Oc4ccncc4)cc3)c3c(N)ncc(Cl)c32)C1 [BCD-BTK-139, (R)-1-(1-acryloylpiperidin-3-yl)-7-chloro-3-(4-(pyridin-4-yloxy)phenyl)-1H-pyrazolo[4,3-c]pyridin-4-amine] | 48.8 | 200 | – | – | 10200
C=CC(=O)N1CCC[C@@H](n2nc(-c3ccc(Oc4cccnc4C(N)=O)cc3)c3cncc(Cl)c32)C1 [BCD-BTK-220, 3-(4-{7-chloro-1-[(3R)-1-(prop-2-enoyl)piperidin-3-yl]-1H-pyrazolo[4,3-c]pyridin-3-yl}phenoxy)pyridine-2-carboxamide] | 820 | > 300 | 10500 | > 100 | –
C=CC(=O)N1CCC[C@@H](n2nc(-c3ccc(Oc4ccncc4C#N)cc3)c3cncc(Cl)c32)C1 [BCD-BTK-202, (R)-4-(4-(1-(1-acryloylpiperidin-3-yl)-7-chloro-1H-pyrazolo[4,3-c]pyridin-3-yl)phenoxy)nicotinonitrile] | > 500 | > 500 | 7790 | > 500 | –
C=CC(=O)N1CCC[C@@H](n2nc(-c3cnc(C(=O)Nc4cc(C(F)(F)CCC)ccn4)nc3)c3cncc(Cl)c32)C1 [BCD-BTK-292, (R)-5-(1-(1-acryloylpiperidin-3-yl)-7-chloro-1H-pyrazolo[4,3-c]pyridin-3-yl)-N-(4-(1,1-difluorobutyl)pyridin-2-yl)pyrimidine-2-carboxamide] | > 500 | 63.5 | 3350 | 77.8 | –

These reach a lower IC50 (EGFR). Values come first.

IC50 (EGFR) [nM] | IC50 (ITK) [nM] | IC50 [1, 2] [nM] | IC50 (TEC) [nM] | IC50 ([1]; Table 11, 72 h) [nM] | Compound
1.32 | 11 | 17300 | 6.61 | – | C=CC(=O)N1CCC[C@@H](n2nc(-c3ccc(C(=O)Nc4ccccn4)cc3)c3c(N)nccc32)C1 [BCD-BTK-242, (R)-4-(1-(1-acryloylpiperidin-3-yl)-4-amino-1H-pyrazolo[4,3-c]pyridin-3-yl)-N-(pyridin-2-yl)benzamide]
8.83 | 10.1 | 3650 | 7.21 | – | C=CC(=O)N1CCC[C@@H](n2nc(-c3ccc(C(=O)Nc4cc(C(F)(F)F)ccn4)cc3)c3c(N)ncc(Cl)c32)C1 [BCD-BTK-251, (R)-4-(1-(1-acryloylpiperidin-3-yl)-4-amino-7-chloro-1H-pyrazolo[4,3-c]pyridin-3-yl)-N-(4-(trifluoromethyl)pyridin-2-yl)benzamide]
1.8 | 25.4 | 9600 | 14.8 | – | C=CC(=O)N1CCC[C@@H](n2nc(-c3ccc(C(=O)Nc4ccccn4)cc3)c3c(N)ncc(C#N)c32)C1 [BCD-BTK-234, (R)-4-(1-(1-acryloylpiperidin-3-yl)-4-amino-7-cyano-1H-pyrazolo[4,3-c]pyridin-3-yl)-N-(pyridine-2-yl)benzamide]
2.41 | 7.78 | 14100 | 3.81 | – | C=CC(=O)N1CCC[C@@H](n2nc(-c3ccc(C(=O)Nc4ccccn4)cc3)c3c(N)ncc(OC)c32)C1 [BCD-BTK-240, (R)-4-(1-(1-acryloylpiperidin-3-yl)-4-amino-7-methoxy-1H-pyrazolo[4,3-c]pyridin-3-yl)-N-(pyridin-2-yl)benzamide]
10.5 | 24.9 | 14200 | 6 | – | C=CC(=O)N1CCC[C@@H](n2nc(-c3ccc(Oc4ccncc4)cc3)c3c(N)ncc(OC)c32)C1 [BCD-BTK-239, (R)-1-(1-acryloylpiperidin-3-yl)-4-amine-7-methoxy-3-(4-(pyridin-4-yloxy)phenyl)-1H-pyrazolo[4,3-c]pyridine]
